Data reported in patent publication US20200206198A1, “CFTR CHANNEL ACTIVATOR FOR USE IN THE TREATMENT AND/OR PREVENTION OF GLUTEN SENSITIVITY CONDITIONS” (priority 2017, published 2020).

Tested on: Caco-2 cells
Assay: Innate immune activation in Caco-2 cells (NLRP3, caspase-1, IL-15, NF-κB p65)
Assay type: cell-based, human
Method: Human colon adenocarcinoma-derived Caco-2 and T84 cells were obtained from the ATCC. Cells were maintained in T25 flask in Modified Eagle Medium (MEM) for Caco-2, or Ham's F12+DMEM (1:1) for T84, supplemented with 10% fetal bovine serum (FBS), 2 mM Glutamine+1% Non Essential Amino Acids (NEAA) and the antibiotics penicillin\streptomycin (100 units/ml) (all reagents from Lonza) (Luciani, A., et al. 2010. Cells were grown in Transwells (Corning, 3470 or 3460) under the normal condition (Luciani, A., et al. 2012). Briefly, 8×10^4 or 5×10^5 cells were seeded in 6.5-mm diameter or 12-mm diameter, respectively, and grown until the RT reached 800 to 1,200 Ω·cm2. Transwells with a pore size of 0.4 μm were used. Medium in both the apical and basolateral chambers was changed every other day. Cells were treated with 20 μg/ml of either α-gliadin peptide P31-43 or […]-69 or scrambled PGAV or modified P31-43 either biotin-tagged or not, for different time point (from 1 h short challenge up to 24 h). Cells were also treated with 50 or 100 μg/ml of […]-68 or PGAV peptides for 3 h. Caco-2 or T84 cells were also treated with: CFTR potentiators VX-770 (10 μM) or VX-532 (20 μM) (Selleck chemicals) or Genistein (10 μM) (Sigma-Aldrich) or in presence or absence of CFTR inhibitor172 (CFTRinh172, 20 μM) or 3-methyl-adenine (3-MA, 20 μM) (Calbiochem), Z-DON (20 nM, Zedira) or BAPTA-AM (10 μM, Calbiochem). The whole lysate or membrane fraction proteins of cell lines and mice intestine homogenates were obtained from treated and untreated cells or mice as described. The equal amount of protein were resolved by SDS-PAGE gel and blotted with antibodies against: SQSTM1, (Sigma Aldrich, 108k4767) 1:1000, PPARγ (Santa Cruz Biotechnology, sc7273) 1:500, BECN1 (Abcam, ab58878) 1:1000, CFTR clone M3A7 (Abcam, ab4067) 1:500, phospho-ERK1/2 (php42/44, Cell Signaling Technology, #91101) 1:1000, UVRAG (Santa Cruz Biotechnology sc8215) 1:1000, NHERF-1 (BD, 611161) 1:1000, EZRIN (BD, 610603) 1:1000, hVps34 (SigmaV9764) 1:300, biotin (Abcam, ab1227) 1:2000, PKAr2a (BD, 610625) 1:500, Ubiquitin (Cell Signaling clone P4D1, #3936) 1:1000, CHIP (Calbiochem PC711) 1:500, Caspase-1 p10 (M-20) (Santa Cruz Biotechnology, sc-514) 1:200, NLRP3 (Abcam, ab4207), 1:500, IDO1 (monoclonal; cv152) 1:1000^[80], used as primary antibodies. Normalization was performed by probing the membrane with anti-β-actin (Cell Signaling, #4970) 1:1000, anti-Gapdh (Sigma-Aldrich, G8795) 1:1000 and anti-flottilin (Abcam ab15148) 1:1000 antibodies. Immunoprecipitations of endogenous proteins were performed on 500 μg of lysates from Caco-2 cells. The proteins were incubated for 12-18 h at 4° C. with 10 ug\ml of specific antibody followed by the addition of Protein A/G-agarose beads for 4 h at 4° C. The beads were then washed three times with lysis buffer and Laemmli's sample buffer was added to the samples. The membranes were then blotted with: CFTR clone CF3 (Abcam, ab2784) 1:1000, TG2 (clone CUB7402; NeoMarkers) 1:1000, CHIP (Calbiochem PC711) 1:500, Ubiquitin (Cell Signaling clone P4D1 3936), isopeptide (Abcam 422) 1:1000, PKAR2 (BD 610625) 1:500. For cytoplasmic and nuclear extracts human colorectal carcinoma Caco-2 cells were harvested, washed in cold PBS twice, and centrifuged at 6000 rpm for 5 min in cold room to collect pellets. […] The protein concentrations were measured by Bradford protein assay (Protein Reagent, Bio-Rad). […]

| Compound | NF-κB p65 translocation into the nucleus (Caco-2 cells after incubation with peptide) | effect on P31-43-induced NF-κB p65 nuclear translocation (Caco-2 cells) | effect on P31-43-induced NLRP3 expression (Caco-2 cells) | effect on P31-43-induced caspase-1 cleavage (Caco-2 cells) | effect on P31-43-induced production of IL-15 (Caco-2 cells, ELISA, p<0.001) |
| --- | --- | --- | --- | --- | --- |
| α-gliadin peptide LGQQQPFPPQQPY (SEQ ID 1), induces an enterocyte stress response (P31-43 sequence of alpha-gliadin) | NF-κB p65 translocation into the nucleus was observed | – | – | – | – |
| CC(C)(C)c1cc(C(C)(C)C)c(NC(=O)c2c[nH]c3ccccc3c2=O)cc1O [VX-770, N-(2,4-di-tert-butyl-5-hydroxyphenyl)-4-oxo-1,4-dihydroquinoline-3-carboxamide] | – | suppressed | prevented | prevented | prevented the P31-43-induced production of IL-15 |
